These results are taken from patent US20240382600A1, “BIFUNCTIONAL DEGRADERS COMPRISING A TEAD BINDER” (Novartis AG, priority 2021, published 2024).

Broadly, the GI50 is the concentration giving 50% growth inhibition. As a reminder, the IC50 is the concentration that gives 50% inhibition.

The test system of one test is MKN-45/Ubc-luc cells. As to the kind of experiment: Proliferation assay (resazurin/AlamarBlue), MKN-45. The class given is cell-based. The following applies: Homo sapiens; MKN-45, 72 hours. From the text:
(§1) NCI-H2052 mesothelioma cells (RRID: CVCL_1518) bearing Hippo-pathway inactivating mutations upstream of YAP (homozygous deletion of LATS2 and mutation of NF2) were obtained from ATCC (American Type Culture Collection), while SF268 glioma cells (RRID: CVCL_1689) overexpressing YAP due to genomic amplification were obtained from the NCI (National Cancer Institute). MKN-45 gastric adenocarcinoma cells (RRID: CVCL_0434) genomically deleted for YAP were obtained from the JCRB (Japanese Collection of Research Bioresources) Cell Bank.
As a specificity control, MKN-45 cells were stably transduced with a Ubc-Luc reporter construct, in which constitutive expression of firefly luciferase is driven by the promoter of the ubiquitin C housekeeping gene.
(§2) Stock solutions of compounds were prepared at a concentration of 10 mM in DMSO and stored at 4° C. Where necessary to afford a full dose-response curve, the stock solutions were pre-diluted in DMSO to 1′000-fold the desired reduced start concentration. On the day after cell seeding, eleven 2-fold serial dilutions of each compound were dispensed directly into the cell assay plates using a HP 300D non-contact Digital Dispenser (TECAN). The final concentration of DMSO was normalized to 0.1% in all wells.
(§3) After incubation for 72 hours at 37° C., compound-mediated modulation of cell viability was quantified as follows. […] To enable differentiation of cytotoxic from cytostatic compound effects, the number of viable cells on the day of compound addition (day 0) was assessed in a separate cell plate and used to assess the extent of cell viability suppression as described in the following section.
(§4) For data analysis, the assay background value determined in wells containing medium, but no cells, was subtracted from all data points.
(§5) The extent of growth inhibition and potential cell kill was assessed by comparing the resorufin levels in compound-treated cells with those present at the time of compound addition. To this end, the following conditional concept was programmatically applied in HELIOS to calculate % growth (% G) for each compound-treated well: % G=(T−V0)/V0))*100 when T<V0, and % G=(T−V0)/(V−V0)))*100 when T≥V0, where V0 is the viability level at time of compound addition, while V and T represent vehicle-control and compound-treated viability levels, respectively, at the end of the compound incubation. 100%, 0% and −100% signify absence of growth inhibition, growth stasis, and complete cell kill, respectively. Compound concentrations leading to half-maximal growth inhibition (GI50) and residual cell viability at the highest tested compound concentration (Data(cmax), expressed in percent) were routinely calculated.
For orientation: Alamar Blue is a resazurin reagent that responds to reducing activity.

Test [1] addresses Avi-humanTEAD4^217-434 / Cy5 labeled humanYAP^60-100 (Homo sapiens (Human), UniProt Q15561). In words: In-vitro biochemical TR-FRET assay (TEAD4/YAP). The class given is binding. The following applies: 1 h at room temperature. The method, then: N-terminus Cy5 labeled humanYAP^60-100 (20 nM) was then added to this preparation. Compounds were dissolved at 10 mM in 100% DMSO and serial dilutions were made in 100% DMSO. The diluted compound solutions were incubated in white 384-well plates (Greiner Bio-One) for 1 h at room temperature with the above described mix. The final DMSO concentration present in the assay was 1%. […] The IC50 values were estimated by fitting the data by nonlinear fit regression (GraphPad Prism).
On the technique in general: TR-FRET usually uses a lanthanide donor and a delayed reading to cut background.

In test [2] the test system is YAP-dependent transcription in SF268-MCAT_Luc_dox-i-shYAPLevy (Clone 13) cells. In words: YAP reporter gene activity assay (MCAT-Luc), SF268. The following applies: Homo sapiens, SF-268; SF268 MCAT_Luc, 24 hrs. It is filed as cell-based. On the technique in general: Reporter assays use an easily measured gene product as a stand-in for the process of interest.
In test [3] the test system is SF268-MCAT_Luc_dox-i-shYAPLevy (Clone 13) cells. As to the kind of experiment: Proliferation assay (resazurin/AlamarBlue), SF268. The class given is cell-based. The settings on record: Homo sapiens, SF-268; SF268, 72 hours.
From the text: as §1, §2, §3, §4, §5

Test [4] deals with MKN-45/Ubc-luc cells (unspecific inhibition of luciferase expression or activity). As to the kind of experiment: Reporter gene assay specificity control (Ubc-Luc), MKN-45. The class given is cell-based. The settings on record: Homo sapiens; MKN-45/Ubc-luc specificity control, 24 hrs.
From the text: as §1
As a specificity control, MKN-45 cells were stably transduced with a Ubc-Luc reporter construct, in which constitutive expression of firefly luciferase is driven by the promoter of the ubiquitin C housekeeping gene. The resulting cell line, MKN-45/Ubc-luc, was selected and maintained in growth medium (RPMI 1640 (Amimed Cat #1-41F01-I), 2 mM L-Glutamine (Amimed Cat #5-10K50-H), 10% fetal calf serum (Amimed Cat #2-01F30-I Lot K08815P), 1% MEM Non-essential amino acids (Amimed Cat #5-13K00-H), 1× Penicillin/Streptomycin (Amimed Cat #4-01F00-H)) containing 1 μg/ml blasticidin (Gibco Cat #A11139-03).
as §2
The ability of compounds to inhibit YAP-dependent transcription was assessed in NCI-H2052 Tet-On shYAP_2371 pLenti6 MCAT_Luc and SF268-MCAT_Luc, dox-i-shYAPLevy (Clone 13) cells, while specificity (lack of unspecific inhibition of luciferase expression or activity) was assessed in MKN-45/Ubc-luc cells. The individual cell lines were seeded at 2′500 cells/20 μl/well into white-wall, clear-bottom 384-well plates (Greiner, Cat #781098) and incubated over night at 37° C. prior to addition of serial compound dilutions as described above. Following incubation for 24 hrs at 37° C., compound-mediated modulation of reporter-gene activity was quantified 5 min after addition 20 μL […] BrightGlo (Promega Cat #E2620), by measuring luminescence intensity on a multi-mode plate-reader (TECAN) with an integration time of 100 ms.
as §4

In test [5] the test system is YAP-dependent transcription in NCI-H2052 Tet-On shYAP_2371 pLenti6 MCAT_Luc cells. In words: YAP reporter gene activity assay (MCAT-Luc), NCI-H2052. The class given is cell-based. The settings on record: Homo sapiens, 24 hrs.
For test [6], the system named is NCI-H2052 Tet-On shYAP_2371 pLenti6 MCAT_Luc cells. In words: Proliferation assay (resazurin/AlamarBlue), NCI-H2052. It is filed as cell-based. The following applies: Homo sapiens; NCI-H2052, 72 hours.
From the text: as §1, §2, §3, §4, §5

Sequence of Avi-humanTEAD4^217-434 / Cy5 labeled humanYAP^60-100 (Q15561 217-434): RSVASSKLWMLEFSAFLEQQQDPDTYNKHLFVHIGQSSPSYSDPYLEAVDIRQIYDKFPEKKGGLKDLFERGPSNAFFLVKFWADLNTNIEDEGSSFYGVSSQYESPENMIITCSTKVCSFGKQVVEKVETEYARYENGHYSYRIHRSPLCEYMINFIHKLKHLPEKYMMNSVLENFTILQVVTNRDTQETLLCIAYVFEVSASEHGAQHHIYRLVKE

In the case of `COc1ccc(C(N)=O)c(-c2c(Cl)c(F)cc3c2[C@H](C)[C@@](CN[C@H]2CC[C@H](C(=O)O)CC2)(c2ccccc2)O3)c1F` (atropisomer, axis not shown) [C-I, (1S,4r)-4-((((2S,3S,4S)-4-(6-carbamoyl-2-fluoro-3-methoxyphenyl)-5-chloro-6-fluoro-3-methyl-2-phenyl-2,3-dihydrobenzofuran-2-yl)methyl)amino)cyclohexane-1-carboxylic acid], the GI50 in the test with MKN-45/Ubc-luc cells is above 2000 nM; in test [3], above 2000 nM; in test [6], 170 nM. Moreover, the IC50 in test [1] was 2.2 nM; in test [2] it was 180 nM; in test [4], above 2000 nM; in test [5], 130 nM.
Consider `COc1ccc(C(=O)N2CCC(OC3CCN(CCNC(=O)[C@H]4CC[C@H](NC[C@]5(c6ccccc6)Oc6cc(F)c(Cl)c(-c7c(C(N)=O)ccc(OC)c7F)c6[C@@H]5C)CC4)CC3)CC2)cc1N1CCC(=O)NC1=O` (atropisomer, axis not shown) [Example 4, 2-((2S,3S,4S)-5-chloro-2-((((1r,4S)-4-((2-(4-((1-(3-(2,4-dioxotetrahydropyrimidin-1(2H)-yl)-4-methoxybenzoyl)piperidin-4-yl)oxy)piperidin-1-yl)ethyl)carbamoyl)cyclohexyl)amino)methyl)-6-fluoro-3-methyl-2-phenyl-2,3-dihydrobenzofuran-4-yl)-3-fluoro-4-methoxybenzamide], for which the GI50 with MKN-45/Ubc-luc cells was above 20000 nM; in test [3], 33 nM; in test [6], 140 nM. Further, the half-maximal inhibitory concentration (IC50) is 1.1 nM in test [1], 1.7 nM in test [2], above 20000 nM in test [4] and 49 nM in test [5].
Take `COc1ccc(C(=O)N2CCC(OC3CN(C(=O)[C@H]4CC[C@H](NC[C@]5(c6ccccc6)Oc6cc(F)c(Cl)c(-c7c(C(N)=O)ccc(OC)c7F)c6[C@@H]5C)CC4)C3)CC2)cc1N1CCC(=O)NC1=O` (atropisomer, axis not shown) [Example 8, 2-((2S,3S,4S)-5-chloro-2-((((1r,4S)-4-(3-((1-(3-(2,4-dioxotetrahydropyrimidin-1(2H)-yl)-4-methoxybenzoyl)piperidin-4-yl)oxy)azetidine-1-carbonyl)cyclohexyl)amino)methyl)-6-fluoro-3-methyl-2-phenyl-2,3-dihydrobenzofuran-4-yl)-3-fluoro-4-methoxybenzamide]: the figures for the GI50 (in the test with MKN-45/Ubc-luc cells; in test [3]; in test [6]) were above 20000 nM, 120 nM and 310 nM, respectively. In addition, the IC50 in test [1] was 1.6 nM; in test [2], 3.1 nM; in test [4], above 20000 nM; in test [5] it was 120 nM.
Take `COc1ccc(C(=O)N2CCC(CCC3CCN(C(=O)[C@H]4CC[C@H](NC[C@]5(c6ccccc6)Oc6cc(F)c(Cl)c(-c7c(C(N)=O)ccc(OC)c7F)c6[C@@H]5C)CC4)CC3)CC2)cc1N1CCC(=O)NC1=O` (atropisomer, axis not shown) [Example 27, 2-((2S,3S,4S)-5-chloro-2-((((1r,4S)-4-(4-(2-(1-(3-(2,4-dioxotetrahydropyrimidin-1(2H)-yl)-4-methoxybenzoyl)piperidin-4-yl)ethyl)piperidine-1-carbonyl)cyclohexyl)amino)methyl)-6-fluoro-3-methyl-2-phenyl-2,3-dihydrobenzofuran-4-yl)-3-fluoro-4-methoxybenzamide]: the concentration for 50% growth inhibition (GI50) is above 2000 nM with MKN-45/Ubc-luc cells, 5 nM in test [3] and 3.8 nM in test [6]. Besides, the IC50 in test [1] was 4 nM; in test [2], 0.17 nM; in test [4] it was above 2000 nM; in test [5] it was 0.66 nM.
Regarding `COc1ccc(C(N)=O)c(-c2c(Cl)c(F)cc3c2[C@H](C)[C@@](CN[C@H]2CC[C@H](C(=O)N4CCC(CC5CCN(C(=O)COc6ccc(Cl)c(N7CCC(=O)NC7=O)c6)CC5)CC4)CC2)(c2ccccc2)O3)c1F` (atropisomer, axis not shown) [Example 28, 2-((2S,3S,4S)-5-chloro-2-((((1r,4S)-4-(4-((1-(2-(4-chloro-3-(2,4-dioxotetrahydropyrimidin-1(2H)-yl)phenoxy)acetyl)piperidin-4-yl)methyl)piperidine-1-carbonyl)cyclohexyl)amino)methyl)-6-fluoro-3-methyl-2-phenyl-2,3-dihydrobenzofuran-4-yl)-3-fluoro-4-methoxybenzamide], the GI50 in the test with MKN-45/Ubc-luc cells was above 2000 nM; in test [3] it was 31 nM; in test [6], 16 nM. Further, the IC50 in test [1] was 2.7 nM; in test [2], 0.92 nM; in test [4], above 2000 nM; in test [5] it was 4.4 nM.
Turning to `COc1ccc(C(N)=O)c(-c2c(Cl)c(F)cc3c2[C@H](C)[C@@](CN[C@H]2CC[C@H](C(=O)N4CCC(CC5CCN(C(=O)COc6ccc(F)c(N7CCC(=O)NC7=O)c6)CC5)CC4)CC2)(c2ccccc2)O3)c1F` (atropisomer, axis not shown) [Example 29, 2-((2S,3S,4S)-5-chloro-2-((((1r,4S)-4-(4-((1-(2-(3-(2,4-dioxotetrahydropyrimidin-1(2H)-yl)-4-fluorophenoxy)acetyl)piperidin-4-yl)methyl)piperidine-1-carbonyl)cyclohexyl)amino)methyl)-6-fluoro-3-methyl-2-phenyl-2,3-dihydrobenzofuran-4-yl)-3-fluoro-4-methoxybenzamide], the GI50 in the test on MKN-45/Ubc-luc cells was above 200 nM; in test [3], 17 nM; in test [6] it was 13 nM. Further, the half-maximal inhibitory concentration (IC50) is 3.3 nM in test [1], 0.64 nM in test [2], above 2000 nM in test [4] and 3.8 nM in test [5].
